Several values for one entry are separate records, joined by “and”; a condition that tells them apart may be missing. Identical values can stand only once.
Test: Accelerated and long term stability study of TTI-101 (Batch A, Batch B): HPLC assay, purity, impurities and water content after storage at 5° C., 25° C./60% RH, 30° C./65% RH or 40° C./75% RH
Type: physicochemical
Set-up: key to Impurity RRT 1.05: NQ: ≥0.02% and <0.05%; —: no peak
Procedure: Exemplary HPLC conditions: diluent was 0.1% trifluoroacetic acid (TFA) in acetonitrile, Mobile Phase A was 0.05% TFA in water, and Mobile Phase B was 0.05% TFA in acetonitrile, column (Agilent, Eclipse XDB-C18, 3.0×100 mm, particle size 1.8 μm), flow (0.425 mL/min), and detector (280 nm diode array).
Batch A was prepared analogously using Method 3 as described in Example 1. Batch B was prepared according to Method 5 as described in Example 1.
Samples of TTI-101 were stored at 5° C., 25° C./60% RH, 30° C./65% RH, or 40° C./75% RH. TTI-101 was stored in an LDPE bag enclosed with a Nylon cable tie and then transferred to another LDPE bag and enclosed with a Nylon cable tie. The enclosure was put into an HDPE bottle and closed with a polyethylene-lined polypropylene cap. The samples were stored under the above-identified conditions.
The samples were analyzed using HPLC with the exemplary conditions identified above. Relative retention time (RRT) for Compound 5 was about 0.83, Compound 4 was about 1.05-1.06, Compound 6 was about 1.15-1.17, and compound of formula (IV) was about 0.99.
• NA not applicable • NQ ≥0.02% and <0.05% • Avg average • Cmpd compound • — no peak • M month • RRT relative retention time

[1] = Storage 5° C., 4.5 M (25° C./60% RH) + 1.5 M (5° C.), Avg
[2] = Storage 5° C., 4.5 M (25° C./60% RH) + 1.5 M (5° C.), Prep P1-P2
[3] = Storage 5° C., 4.5 M (25° C./60% RH) + 1.5 M (5° C.), Prep P1-P2, listed as Batch B
[4] = Storage 5° C., 9 M, Prep P1-P2, listed as Batch B
[5] = Storage 25° C./60% RH, 0 M, Avg
[6] = Storage 25° C./60% RH, 0 M, Prep P1-P5
[7] = Storage 25° C./60% RH, 0 M, Prep P1-P5, listed as Batch B
[8] = Storage 25° C./60% RH, 1 M, Avg
[9] = Storage 25° C./60% RH, 1 M, Prep P1-P2
[10] = Storage 25° C./60% RH, 3 M, Avg
[11] = Storage 25° C./60% RH, 3 M, Prep P1-P2
[12] = Storage 25° C./60% RH, 3 M, Prep P1-P2, listed as Batch B
[13] = Storage 25° C./60% RH, 6 M, Avg
[14] = Storage 25° C./60% RH, 6 M, Prep P1-P2

With `COc1ccc(S(=O)(=O)Nc2cc(-c3c(O)ccc4ccccc34)c(O)c3ccccc23)cc1` [TTI-101] the “Water Content” value (Storage 5° C., 0 M, Avg) was 0.1%, the “Water Content” value (Storage 5° C., 0 M, Prep P1-P2) was 0.1% and the “Impurities Total” value (Storage 5° C., 0 M, Prep P1-P5) was 0.1 area %. For the same compound, the “Impurity RRT 0.86” value (Storage 5° C., 0 M, Prep P1-P5) was “NQ (≥0.02% and <0.05%)”, the “Impurity RRT 0.99” value (Storage 5° C., 0 M, Prep P1-P5) was “NQ (≥0.02% and <0.05%)” and the Purity (Storage 5° C., 0 M, Prep P1-P5) was 99.8%. For the same compound, the “Impurity RRT 1.16 (Cmp 6)” value (Storage 5° C., 0 M, Prep P1-P5, listed as Batch B) was 0.08 area % and 0.07 area %, the “Impurities Total” value [1] was 0.3 area % and the “Impurity RRT 0.80” value [1] was “NQ (≥0.02% and <0.05%)”. The “Impurity RRT 0.84” value [1] was “NQ (≥0.02% and <0.05%)”, the “Impurity RRT 0.87” value [1] was “NQ (≥0.02% and <0.05%)” and the “Impurity RRT 0.99” value [1] was 0.05 area %. The “Impurity RRT 1.02” value [1] was “NQ (≥0.02% and <0.05%)”, the “Impurity RRT 1.05” value [1] was “NQ (≥0.02% and <0.05%)” and the “Impurity RRT 1.06 (Cmpd 4)” value [1] was “NQ (≥0.02% and <0.05%)”. The “Impurity RRT 1.17 (Cmp 6)” value [1] was 0.26 area %, the “Impurity RRT 1.39” value [1] was “NQ (≥0.02% and <0.05%)” and the Purity [1] was 99.6%. The “Water Content” value [1] was under 0.04%, the “Impurity RRT 0.84” value [2] was “NQ (≥0.02% and <0.05%)” and the “Impurity RRT 0.87” value [2] was “NQ (≥0.02% and <0.05%)”. For the same compound, the “Impurity RRT 1.02” value [2] was “NQ (≥0.02% and <0.05%)”, the “Impurity RRT 1.06 (Cmpd 4)” value [2] was “NQ (≥0.02% and <0.05%)” and the “Impurity RRT 1.39” value [2] was “NQ (≥0.02% and <0.05%)”. For the same compound, the “Water Content” value [2] was under 0.04%, the “Impurities Total” value [3] was 0.2 area % and 0.3 area % and the “Impurity RRT 1.17 (Cmp 6)” value [3] was 0.25 area % and 0.27 area %. For the same compound, the Purity [3] was 99.6% and 99.5%, the Assay (Storage 5° C., 9 M, Avg) was 99.1% and the “Impurities Total” value (Storage 5° C., 9 M, Avg) was 0.3 area %. The “Impurity RRT 0.84” value (Storage 5° C., 9 M, Avg) was “NQ (≥0.02% and <0.05%)”, the “Impurity RRT 0.87” value (Storage 5° C., 9 M, Avg) was “NQ (≥0.02% and <0.05%)” and the “Impurity RRT 0.99” value (Storage 5° C., 9 M, Avg) was 0.11 area %. For the same compound, the “Impurity RRT 1.02” value (Storage 5° C., 9 M, Avg) was “NQ (≥0.02% and <0.05%)”, the “Impurity RRT 1.16 (Cmp 6)” value (Storage 5° C., 9 M, Avg) was 0.18 area % and the “Impurity RRT 1.39” value (Storage 5° C., 9 M, Avg) was “NQ (≥0.02% and <0.05%)”. The “Impurity RRT 1.47” value (Storage 5° C., 9 M, Avg) was “NQ (≥0.02% and <0.05%)”, the Purity (Storage 5° C., 9 M, Avg) was 99.6% and the “Water Content” value (Storage 5° C., 9 M, Avg) was 0.05%. The “Impurities Total” value (Storage 5° C., 9 M, Prep P1-P2) was 0.3 area %, the “Impurity RRT 0.87” value (Storage 5° C., 9 M, Prep P1-P2) was “NQ (≥0.02% and <0.05%)” and the “Impurity RRT 0.99” value (Storage 5° C., 9 M, Prep P1-P2) was 0.11 area %. The “Impurity RRT 1.02” value (Storage 5° C., 9 M, Prep P1-P2) was “NQ (≥0.02% and <0.05%)”, the “Impurity RRT 1.39” value (Storage 5° C., 9 M, Prep P1-P2) was “NQ (≥0.02% and <0.05%)” and the Purity (Storage 5° C., 9 M, Prep P1-P2) was 99.6%. For the same compound, the Assay [4] was 98.7% and 99.4%, the “Impurity RRT 1.16 (Cmp 6)” value [4] was 0.18 area % and 0.17 area % and the “Water Content” value [4] was 0.1% and 0.05%. The Assay [5] was 99.4%, the “Impurities Total” value [5] was 0.1 area % and the “Impurity RRT 0.61” value [5] was 0.05 area %. The “Impurity RRT 0.86” value [5] was “NQ (≥0.02% and <0.05%)”, the “Impurity RRT 0.88” value [5] was “NQ (≥0.02% and <0.05%)” and the “Impurity RRT 0.99” value [5] was “NQ (≥0.02% and <0.05%)”. The “Impurity RRT 1.16 (Cmp 6)” value [5] was 0.07 area %, the Purity [5] was 99.8% and the “Water Content” value [5] was 0.1%. For the same compound, the “Water Content” value (Storage 25° C./60% RH, 0 M, Prep P1-P2) was 0.1%, the “Impurities Total” value [6] was 0.1 area % and the “Impurity RRT 0.86” value [6] was “NQ (≥0.02% and <0.05%)”. The “Impurity RRT 0.99” value [6] was “NQ (≥0.02% and <0.05%)”, the Purity [6] was 99.8% and the Assay [7] was 99.0% and 100.5% and 99.3% and 99.5% and 98.8%. The “Impurity RRT 1.16 (Cmp 6)” value [7] was 0.08 area % and 0.07 area %, the “Impurities Total” value [8] was 0.5 area % and the “Impurity RRT 0.80” value [8] was “NQ (≥0.02% and <0.05%)”. The “Impurity RRT 0.84” value [8] was “NQ (≥0.02% and <0.05%)”, the “Impurity RRT 0.87” value [8] was “NQ (≥0.02% and <0.05%)” and the “Impurity RRT 0.99” value [8] was 0.10 area %. For the same compound, the “Impurity RRT 1.02” value [8] was “NQ (≥0.02% and <0.05%)”, the “Impurity RRT 1.05” value [8] was “NQ (≥0.02% and <0.05%)” and the “Impurity RRT 1.06 (Cmpd 4)” value [8] was “NQ (≥0.02% and <0.05%)”. The “Impurity RRT 1.17 (Cmp 6)” value [8] was 0.39 area %, the Purity [8] was 99.4% and the “Water Content” value [8] was 0.1%. For the same compound, the “Impurities Total” value [9] was 0.5 area %, the “Impurity RRT 0.80” value [9] was “NQ (≥0.02% and <0.05%)” and the “Impurity RRT 0.84” value [9] was “NQ (≥0.02% and <0.05%)”. For the same compound, the “Impurity RRT 0.87” value [9] was “NQ (≥0.02% and <0.05%)”, the “Impurity RRT 0.99” value [9] was 0.10 area % and the “Impurity RRT 1.02” value [9] was “NQ (≥0.02% and <0.05%)”. The “Impurity RRT 1.17 (Cmp 6)” value [9] was 0.39 area %, the Purity [9] was 99.4% and the “Water Content” value [9] was 0.1%. The Assay (Storage 25° C./60% RH, 1 M, Prep P1-P2, listed as Batch B) was 99.0% and 99.2%, the Assay [10] was 97.8% and the “Impurities Total” value [10] was 0.4 area %. For the same compound, the “Impurity RRT 0.48” value [10] was “NQ (≥0.02% and <0.05%)”, the “Impurity RRT 0.80” value [10] was “NQ (≥0.02% and <0.05%)” and the “Impurity RRT 0.84” value [10] was “NQ (≥0.02% and <0.05%)”. For the same compound, the “Impurity RRT 0.87” value [10] was “NQ (≥0.02% and <0.05%)”, the “Impurity RRT 0.99” value [10] was 0.09 area % and the “Impurity RRT 1.02” value [10] was “NQ (≥0.02% and <0.05%)”. The “Impurity RRT 1.05” value [10] was “—”, the “Impurity RRT 1.06 (Cmpd 4)” value [10] was “NQ (≥0.02% and <0.05%)” and the “Impurity RRT 1.17 (Cmp 6)” value [10] was 0.33 area %. The Purity [10] was 99.4%, the “Water Content” value [10] was 0.04% and the “Impurities Total” value [11] was 0.4 area %. For the same compound, the “Impurity RRT 0.80” value [11] was “NQ (≥0.02% and <0.05%)”, the “Impurity RRT 0.84” value [11] was “NQ (≥0.02% and <0.05%)” and the “Impurity RRT 0.87” value [11] was “NQ (≥0.02% and <0.05%)”. The “Impurity RRT 0.99” value [11] was 0.09 area %, the “Impurity RRT 1.02” value [11] was “NQ (≥0.02% and <0.05%)” and the “Impurity RRT 1.05” value [11] was “—”. For the same compound, the “Impurity RRT 1.17 (Cmp 6)” value [11] was 0.33 area %, the “Water Content” value [11] was 0.04% and the Assay [12] was 96.8% and 98.8%. For the same compound, the Purity [12] was 99.4% and 99.5%, the Assay [13] was 98.7% and the “Impurities Total” value [13] was 0.3 area %. For the same compound, the “Impurity RRT 0.80” value [13] was “NQ (≥0.02% and <0.05%)”, the “Impurity RRT 0.84” value [13] was “NQ (≥0.02% and <0.05%)” and the “Impurity RRT 0.87” value [13] was “NQ (≥0.02% and <0.05%)”. For the same compound, the “Impurity RRT 0.99” value [13] was 0.05 area %, the “Impurity RRT 1.02” value [13] was 0.05 area % and the “Impurity RRT 1.05” value [13] was “NQ (≥0.02% and <0.05%)”. The “Impurity RRT 1.06 (Cmpd 4)” value [13] was “NQ (≥0.02% and <0.05%)”, the “Impurity RRT 1.17 (Cmp 6)” value [13] was 0.24 area % and the “Impurity RRT 1.39” value [13] was “NQ (≥0.02% and <0.05%)”. The Purity [13] was 99.5%, the “Water Content” value [13] was under 0.04% and the “Impurities Total” value [14] was 0.3 area %. For the same compound, the “Impurity RRT 0.80” value [14] was “NQ (≥0.02% and <0.05%)”.

From US20240033234A1, “THERAPEUTIC COMPOUNDS, FORMULATIONS, AND USE THEREOF” (Tvardi Therapeutics, Inc., priority 2022, published 2024)
